Entries after “also recorded” stand apart in the source; their conditions may differ. Ends that are not written are not given here.
Legend:
[1] = molecular target: T1, panel of 25 biotinylated chemokines (Homo sapiens, UniProt P48061); test: Phage-display screen of HD2 combinatorial mutagenesis library; type: binding; details: CXCL12
T1 construct: purchased Almac or ProteinFoundry
Source text: FIG. 20. Phage display-combinatorial mutagenesis. FIG. 20A, Tile-plot (bottom panel) showing impact of selected HD2 mutations on Δlog 2 E for all chemokines studied. Δlog 2 E is the difference in log 2 E between the parental wild-type peptide and the mutant variant following phage-display selection. See methods for a description of the strategy used for selecting individual mutations. FIG. 20B, All possible combinations of 16 selected single mutations (coloured using the Taylor scale) at 11 residue locations were combined to create a phage-display library with 3585 mutation combinations. The library included the parental HD2 sequence and single mutations as well. Library cloning, screening and analysis was performed as described in the examples.
Combinations of different mutations identified by saturation mutagenesis selection were then studied to see if they could result in additive or cooperative effects, allowing further evolution of peptide function in a desired direction. Traditionally, the selection of two or more mutations in combination is guided by knowledge of the structure of the protein-peptide interface. This approach works well when designing agents against a single target where the interface structure has been experimentally characterised but is challenging when designing agents active against multiple targets, where the interface structures have not been experimentally characterised. To systematically identify mutation combinations that work well against multiple structurally related targets we explored the possibility of using phage-display to select combinations of mutations that bind CC or XC classes of chemokines. […]
As CC and XC binding peptides appeared to have a different improving mutation spectrum we selected mutations using an algorithm that optimizes CC and XC improving mutations separately. […] The library quality was assessed by NGS AmpliconEZ (50,000 reads), and 3584 of 3585 inserts were identified. […]

CXCL12 = CXCL12 (Homo sapiens, UniProt P48061); type: cell-based; parameters: activity in inhibiting migration of activated T cells in comparison to HD2_Y5W: dose or concentration left out as unconfirmed; details: peptides final concentration as printed, chemokine at EC80
Sequence of CXCL12 (P48061 22-89 limits assumed): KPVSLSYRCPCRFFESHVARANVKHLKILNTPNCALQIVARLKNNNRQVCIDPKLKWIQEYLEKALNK
Experimental: FIG. 22. Effect of selected combinatorial HD2 mutations on chemotaxis. FIG. 22A. Box-whisker plot showing the effect of the exemplar single and combinatorically mutant (CM) HD2 peptides on activated-T cell (ATC) migration induced by CXCL12. All experiments were performed as at least three technical and three biological replicates, and individual data points are indicated. […] HD2SCR is a scrambled version of HD2. […] Statistically significant differences (compared to control, HD2_Y5W, coloured blue), using Dunnett's test with correction for multiple comparisons, are indicated by asterisks: ****=P≤0.0001, ***=P≤0.001, **=P≤0.01, *=P≤0.05. All comparisons were made to HD2_Y5W, as it is present in CM539, CM452, and CM304. […] Technical replicates are shown as individual data points. […] The response curve (solid blue line) and its 95% confidence interval (grey ribbon) were calculated using a 4-parameter log-logistic plot. The agonist and estimated IC50 (dotted green line) are indicated.
(§1) The J:CXCR1 cell line was generated by transfecting Jurkat cells by electroporation with PvuI-linearized plasmid D1398 and selecting with blasticidin (Sigma-Aldrich, Cat #203350, […]). […] J:CXCR1 cells were cultured in RPMI-1640 media (Gibco), supplemented with 10% FBS and 5 mM L-Glutamine with blasticidin. For J:CXCR1 migration assays, 300,000 cells/well were added to the top chamber of a 3 μm Transwell insert (Corning) in 50 μL of migration media (RPMI-1640, 0.5% FBS, 4 mM L-Glutamine, 0.05% DMSO). The bottom chamber contained 150 μL of chemokine, with or without peptide. Cells were migrated at 37° C. in 5% CO2 for 4 hours. The plate was incubated on a shaking platform for 10 minutes, 800 rpm, at 37° C., and 150 μL from the bottom of the plate transferred into a U-bottom plate containing 50 μL of migration media. Cell counts were determined by Attune NxT Flow Cytometer Plate Reader (ThermoFisher), based on cell size parameters FSC-H/SSC-H. Experiments were performed in 3 technical and 3 biological replicates. THP-1 migration assays were carried out using methods known in the art. Activated T-cell assays were carried out using methods known in the art, with the following modifications in the isolation process. Peripheral blood cells were obtained from leucocyte cones (NHS Blood Transfusion Services), following which, T-cells were isolated using two rounds of human CD8+ T-cell isolation kit (480011, BioLegend). At day 10 after activation, T-cells were frozen at 20 E6 cells/ml in TexMACS medium supplemented with 10% DMSO (D2650, Sigma) in liquid nitrogen. Prior to use, activated T-cells were recovered for 24 hours in TexMACs medium at 0.3 E6 cells/ml and incubated at 37° C. in 5% CO2. Chemokine sources are described in Supplementary information Table 3. Statistical significances between control experimental groups was evaluated using Dunnett's test. IC50 experiments were performed at the EC80 dose of chemokine. EC80 was calculated by fitting a chemokine dose-response curve with 3 parameters (fixing the top to 100%). IC50 was calculated by fitting an inhibitor response curve with 4 parameters.
(§2) Migration assays using THP1, activated T-cell (ATC) and J:CXCR1 (Jurkat cells stably transfected with CXCR1 receptor) were performed as described previously. IC50 experiments were performed at the EC80 dose of chemokine. EC80 was calculated by fitting a chemokine dose-response curve with 3 parameters (fixing the top to 100%). IC50 was calculated by fitting an inhibitor response curve with 4 parameters. R-packages used were ggupset_0.3.0, DescTools_0.99.44, and drc_3.0-1.

[2] = tested on: panel of up to 42 human chemokines; test: Phage-display next generation sequencing screen of overlapping hexadecapeptide libraries, chemokines displayed on streptavidin beads; type: binding; details: log2E greater than 5, chemokines named by first part of UniProt Entry Name, peptides binding complement C5a (control) excluded;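 further: chemokine listed when log2 fold enrichment exceeds 5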
How it was run: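 Phage-display libraries of 55662 overlapping hexadecapeptides from tick and viral chemokine-binding proteins, human chemokines and chemokine receptors screened against up to 42 human chemokines, with hits found by next-generation sequencing. Peptides mapped to parent-protein position with log2 fold enrichment; regions of interest where cumulative residue log2 E exceeds the 95% upper CI of the protein median.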

CCL8 = molecular target: T2, CCL8 (Homo sapiens, UniProt P80075); test: cell-based; details: for inhibition of cell migration: peptide 10 μM, chemokine at EC80, versus scrambled control HD2SCR
T2 construct: purchased Peprotech
T2 sequence (P80075 24-99): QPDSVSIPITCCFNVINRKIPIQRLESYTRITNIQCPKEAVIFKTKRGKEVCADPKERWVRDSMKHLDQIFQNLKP
Experimental: (§3) FIG. 2. […] BK1.2 is described in (Darlot, 2020). […] Chemokines used are indicated by the name, followed in parenthesis by the supplier code (P in supplier code indicates Peprotech). […] All experiments were performed at EC80 doses of indicated chemokine. Data are shown as box-whisker plots of three technical and three biological replicates. Statistically significant differences (compared to control, indicated by #), using Dunnett's test with correction for multiple comparisons, are indicated by asterisks: ****=P≤0.0001, ***=P≤0.001, **=P≤0.01, *=P≤0.05.
FIG. 3. […] Chemokines used are indicated by the name, followed in parenthesis by the supplier code (P in supplier code indicates Peprotech). […] All experiments were performed at EC80 doses of indicated chemokine.
(§4) Briefly, cell migration assays use THP1 cells (human monocyte) and primary human buffy coat white cells (consisting of neutrophil granulocytes, monocytes, and lymphocytes), and activated T-cells. THP1 cells and primary monocytes respond to CCL2, CCL3, CCL5, CCL8 and CXCL4, granulocytes to CXCL1 and CXCL8, activated T-cells to CXCL9/10/11. Assays are performed in 96-well Boyden chambers, and migrated cells counted and characterized using and ATTUNE Flow Cytometer as described. Triplicate assays are performed at the EC80 dose of each chemokine at 10 μM peptide concentration.
The J:CXCR1 cell line was generated by transfecting Jurkat cells by electroporation with PvuI-linearized plasmid D1398 and selecting with blasticidin (Sigma-Aldrich, Cat #203350, […]). […] J:CXCR1 cells were cultured in RPMI-1640 media (Gibco), supplemented with 10% FBS and 5 mM L-Glutamine with blasticidin. For J:CXCR1 migration assays, 300,000 cells/well were added to the top chamber of a 3 μm Transwell insert (Corning) in 50 μL of migration media (RPMI-1640, 0.5% FBS, 4 mM L-Glutamine, 0.05% DMSO). The bottom chamber contained 150 μL of chemokine, with or without peptide. Cells were migrated at 37° C. in 5% CO2 for 4 hours. […]

CXCL9 = molecular target: T3, CXCL9 (Homo sapiens, UniProt Q07325); test: CXCL9-induced activated T-cell migration, transwell assay; type: cell-based; details: peptide 10 μM, chemokine at EC80
T3 construct: purchased Peprotech
T3 sequence (Q07325 23-125): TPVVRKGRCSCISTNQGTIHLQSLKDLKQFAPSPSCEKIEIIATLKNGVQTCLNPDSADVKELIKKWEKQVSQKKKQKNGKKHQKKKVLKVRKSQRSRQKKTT
Experimental: as §3, §4, §1

CXCL11 = molecular target: T4, CXCL11 (Homo sapiens, UniProt O14625); test: CXCL11-induced activated T-cell migration, transwell assay; type: cell-based; details: peptide 10 μM, chemokine at EC80
T4 construct: purchased Peprotech
T4 sequence (O14625 22-94): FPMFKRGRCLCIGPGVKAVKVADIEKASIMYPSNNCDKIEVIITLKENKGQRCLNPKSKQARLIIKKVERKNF
Experimental: as §3, §4, §1

CXCL10 = molecular target: T5, CXCL10 (Homo sapiens, UniProt P02778); test: CXCL10-induced activated T-cell migration, transwell assay; type: cell-based; details: peptide 10 μM, chemokine at EC80
T5 construct: purchased Peprotech
T5 sequence (P02778 22-98): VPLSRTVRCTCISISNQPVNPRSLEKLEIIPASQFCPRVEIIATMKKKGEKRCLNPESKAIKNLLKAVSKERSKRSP
Experimental: as §3
(§5) FIG. 11. […] Technical replicates are shown as individual data points. […] The response curve (solid blue line) and its 95% confidence interval (grey ribbon) were calculated using a 4-parameter log-logistic plot.
Briefly, cell migration assays use THP1 cells (human monocyte) and primary human buffy coat white cells (consisting of neutrophil granulocytes, monocytes, and lymphocytes), and activated T-cells. THP1 cells and primary monocytes respond to CCL2, CCL3, CCL5, CCL8 and CXCL4, granulocytes to CXCL1 and CXCL8, activated T-cells to CXCL9/10/11. Assays are performed in 96-well Boyden chambers, and migrated cells counted and characterized using and ATTUNE Flow Cytometer as described. […]

CXCL6 = molecular target: T6, CXCL6 (Homo sapiens, UniProt P80162); test: cell-based; details: value in parentheses restating the molar figure
T6 sequence (P80162 38-114): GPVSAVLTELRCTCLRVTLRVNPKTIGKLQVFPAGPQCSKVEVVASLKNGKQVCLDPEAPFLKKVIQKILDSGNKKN
Experimental: as §5, §1, §2

T1 sequence (P48061 22-89 limits assumed): as the sequence (P48061 22-89 limits assumed) above

DDDDWDDYAPITCYFD [CM539]
binding in phage display [1]: enhanced binding | activity in inhibiting migration of activated T cells in comparison to HD2_Y5W (CXCL12): significantly enhanced activity

DEDYEDFFKPVTCYFA [HD540]
Chemokines Bound [2]: CCL18, CCL22,; also recorded: CCL5, CCL8 | inhibition of cell migration (CCL8): inhibition

DEDDWDAYAPIWCYFT-NH2 [CM304, DEDDWDAYAPIWCYFT]
binding in phage display [1]: enhanced binding | activity in inhibiting migration of activated T cells in comparison to HD2_Y5W (CXCL12): significantly enhanced activity

CVEITYFGDFGDPSQD [EB429]
Chemokines Bound [2]: CXL10, CXL11,; also recorded: SDF1, CXL13 | inhibition of cell migration (CXCL9): inhibit cell migration | inhibition of cell migration (CXCL11): inhibit cell migration | inhibition of cell migration (CXCL10): inhibit cell migration

DDDDWDAYAPIWCYFT [CM452]
binding in phage display [1]: enhanced binding | activity in inhibiting migration of activated T cells in comparison to HD2_Y5W (CXCL12): significantly enhanced activity

EEDDYTAYAPLTCYFT-NH2 [HD2, EEDDYTAYAPLTCYFT]
IC50 (CCL8; value in parentheses restating the molar figure): 0.015 µM | IC50 (CXCL6): 140 µM

EDEDYEDFFKPVTCYF [HD845]
Chemokines Bound [2]: CCL18, CCL22,; also recorded: CCL5, CCL8 | inhibition of cell migration (CCL8): inhibition

— patent publication US20260234188A1, “CHEMOKINE-BINDING PEPTIDES” (Oxford University Innovation Limited, priority 2022, published 2026)
